Assays:
Plasma pharmacokinetics = assay type: in vivo, human
[1] = tested on: tumor models with FGFR alterations; conditions: several tumor models with FGFR alterations in vivo; cited from earlier work
[2] = Allometric scaling of single dose PK data from mice, rats and monkeys; parameters: species or system human; conditions: allometric scaling model of single dose PK data from mice, rats, monkeys
FGFR [3] = assay: Tissue biomarkers in skin and tumor biopsies; assay type: in vivo, human
FGFR [4] = assay: Blood PD biomarkers; assay type: in vivo, human
monkeys = assay: 4-week repeated-dose toxicity study; assay type: in vivo, monkey
FGFRs 1–3 = conditions: in vitro, ATP-competitive; cited from earlier work

## Debio 1347
Plasma pharmacokinetics; 40 mg single dose, cross-over, 90% CI 0.73–1.05, n=9
  Mean relative oral bioavailability of tablets versus capsules: 0.88
Plasma pharmacokinetics; majority of patients, once-daily dosing
  Time to steady-state (Ctrough): during the first week of treatment
Plasma pharmacokinetics; post-first dose, majority of patients
  Time to detection in plasma: ≤ 30 min
Plasma pharmacokinetics; post-first oral dose, range 1.5–24
  Median tmax: 3 h
Plasma pharmacokinetics; post-first oral dose, range 4.7–20.6
  Plasma half-life (mean): 11.5 h
Plasma pharmacokinetics; range 2.7–13.9
  Mean apparent oral clearance: 7.0 L/h
[1]
  Efficacy in tumor models: effective
[2]
  Predicted plasma half-life in humans: 9 h
FGFR [3]; on treatment (day 8), 14 paired biopsies
  DUSP6 mRNA expression change in tumor biopsies: a decrease in DUSP6 was observed
FGFR [3]; predose to day 8, 31 biopsy pairs, immunohistochemistry
  Change of phosphorylated markers (pERK, pFRS2, pS6) in skin biopsies: no clear decrease
FGFR [3]; tumor biopsies
  Patients with DUSP6 decrease >50% who achieved a PR: two out of three
FGFR [4]; maximum serum phosphate in cycle 1 versus plasma trough levels
  Hyperphosphatemia versus plasma exposure: correlated with Debio 1347 exposure
FGFR [4]; oral once daily
  Dose at which serum phosphate confirmed target engagement: ≥ 60 mg/day
FGFR [4]; seen in about half of patients at 60 mg/day, majority at ≥80 mg/day
  Ctrough at which serum phosphate increases of 50% from baseline were achieved: about 400 ng/mL
FGFR [4]; steady-state, without clear relationship to the dose
  Plasma FGF23 change: overall increase
monkeys
  Highest non-severely toxic dose: 4 mg/kg/day
FGFRs 1–3
  Inhibitory concentration for FGFRs 1–3: low nanomolar

— article PMC9014845 (Clinical cancer research : an official journal of the …, 2019)
